# Key:
# HUVEC cells [1] = experiment: Effect of inhibitors/antagonists on the AdSucc-induced Ca2+ response; format: cell-based, human; settings: for effect on Ca2+ response upon AdSucc treatment: PLC inhibitor / IP3 antagonist
# Description: (§1) In another example, AdSucc signaling properties were studied. To validate if AdSucc may have a signaling role, the effect of AdSucc on second messenger signaling molecules was studied. […] Our initial data was collected on a plate reader that averages multicellular responses upon AdSucc stimulation. […] To get insights into a mechanism for Ca^2+ release, cells were treated with phospholipase C (PLC) inhibitors U73122 and inositol phosphate triphosphate (IP3) antagonist 2-APB. […] In FIG. 3B, forskolin was used as a positive control (n=5). In FIG. 3C AdSucc is shown to increase cytosolic Ca^2+ in the primary rat brain microvascular endothelia 9b) and HUVEC (c) cells as determined using a plate reader, ATP was used as a positive control.
# [2] = test system: mice with transient middle cerebral artery occlusion (MCAO); experiment: Stroke model: 45 min transient middle cerebral artery occlusion (MCAO), intranasal treatment; format: in vivo; settings: AdSucc intranasally 2 h after reperfusion and then every 24 h, 10 μL/animal, 20 mM in PBS; tested 1-7 days post MCAO
# Description: In an example, Stroke was induced in 3 month old mice with 45 min of transient middle cerebral artery occlusion (MCAO) using an intraluminal filament and performed in a double-blind manner. To correct for edema and necrotic tissue loss, corrected infarct volume was calculated as [(volume of the contralateral hemisphere) minus (volume of the viable tissue in ischemic hemisphere)] after triphenyl tetrazolium chloride (TTC) staining on day 7 post-reperfusion. Following MCAO, a modified neurological deficiency score was used to grade neurological function. A series of motor (muscle status, movement, and balance), sensory (visual, tactile, and proprioceptive) and reflex tests were graded (0—being normal and 18—maximal deficit score) by investigator who was blinded to the experimental groups. Mice were tested 1, 3, 5, and 7 days post MCAO surgery. Deaths were plotted and analyzed as survival probability. Mice were treated with AdSucc intranasally 2 h after reperfusion and then every 24 h (10 μL/animal over 10 min, 20 mM in PBS, pH=7.2). […] FIG. 1A is a graph showing neurological deficiency in the test subjects. In FIG. 1A, higher numbers indicate higher deficiency between saline and AdSucc treated animals at the same test day. […] FIG. 1C is a graph showing representative blood flow rate during MCAO surgery as recorded with a laser Doppler sensor.
# nude mice [3] = experiment: In vivo DIVA assay kit (endothelial cell quantification with FITC labeled lectin); settings: AdSucc 0.5 mM loaded, s.c. in nude mice, 10 days, n=4
# Source text: (§2) The pro-angiogenic AdSucc effect in vivo using a matrigel plaque loaded with AdSucc (using hemoglobin readout) or DIVA assay kit also loaded with AdSucc (using endothelial cell quantification with FITC labeled lectin) was also studied (FIG. 4B). In both assays, matrigel was implanted into nude mice (s.c.) for 10 days. […] In addition, in the matrigel assay, the concentration of AdSucc degradation products, SuccAd, was 1000-fold lower than AdSucc, and adenosine was undetectable in the matrigel (FIG. 4C).
# nude mice [4] = experiment: In vivo matrigel plaque angiogenesis assay (hemoglobin readout); settings: AdSucc 0.5 mM in matrigel, s.c. in nude mice, 10 days, n=4
# Source text: as §2
# [5] = Brain AdSucc concentration after intranasal AdSucc treatment; format: in vivo, mice; settings: 10 μL/animal over 10 min, 20 mM in PBS, pH=7.2
# HUVEC cells [6] = experiment: cAMP levels in endothelial cells; format: cell-based, human; settings: forskolin positive control
# Description: as §1
# [7] = test system: primary rat microvascular endothelial cells; experiment: Intracellular Ca2+ levels in primary rat brain microvascular endothelial cells (plate reader); format: cell-based; settings: ATP positive control
# Description: as §1
# HUVEC cells [8] = experiment: Intracellular Ca2+ levels in HUVEC cells (plate reader, single cell imaging); format: cell-based, human
# Description: as §1
# HUVEC cells [9] = experiment: In vitro sprouting assay on collagen matrix; format: cell-based, human; settings: 24 h, normoxia; for invasion and sprouting of HUVEC cells: 0.5 mM in collagen matrix, n=4
# Description: In another example AdSucc's role in angiogenesis was studied. Two different models were used to collect preliminary data in support of AdSucc angiogenic properties. First, an in vitro sprouting assay—a critical step in angiogenesis—was used. HUVEC cells were plated on collagen matrix containing AdSucc, SuccAd, VEGF, or vesicle control for 24 h. For quantification of invaded and sprouted structures, z-stacked images were taking using transmitted light illumination in identical fields following glutaraldehyde fixation and toluidine blue staining. […] The concentrations used (0.5 mM) were in the range found in the brain under low energy conditions.
# [10] = Matrigel analysis for products of AdSucc degradation upon incubation in vivo; design: species or system mice; settings: AdSucc loaded matrigel after in vivo incubation, n=3
# Source text: as §2
compound,measurement,setting,value
NCCOB(c1ccccc1)c1ccccc1 [2-APB],effect on Ca2+ response upon AdSucc treatment,"HUVEC cells [1]; HUVEC cells, n=5",significantly attenuated
"O=C(O)C[C@H](Nc1ncnc2c1ncn2[C@@H]1O[C@H](COP(=O)(O)O)[C@@H](O)[C@H]1O)C(=O)O [AdSucc, (2S)-2-({9-[(2R,3R,4S,5R)-3,4-dihydroxy-5-[(phosphonooxy)methyl]oxolan-2-yl]-9H-purin-6-yl}amino)butanedioic acid]","outcome after stroke injury (neurological deficiency score, survival, corrected infarct volume)",[2],significant improvement
same,angiogenesis in DIVA assay (FITC lectin labeled endothelial cells),nude mice [3],significantly increased
same,angiogenesis in loaded matrigel (hemoglobin),nude mice [4],significantly increased
same,brain AdSucc concentrations,[5],significantly increased
same,effect on cAMP levels,HUVEC cells [6],no effect
same,effect on intracellular Ca2+ levels,[7],very profound effect
same,Ca2+ increase by single cell Ca2+ imaging,"HUVEC cells [8]; 2 micromolar Fura, 0 and 100 sec after AdSucc 0.3 mM in PBS",independently confirmed
same,effect on intracellular Ca2+ levels,"HUVEC cells [8]; plate reader, AdSucc at the concentration found in the ischemic brain, comparable to ATP treatment",very profound effect
same,invasion and sprouting of HUVEC cells,HUVEC cells [9],significantly potentiated
same,invasion and sprouting effect compared to VEGF,HUVEC cells [9]; 0.5 mM,higher effect compared to VEGF
Cc1c(C(=O)Nc2cccc(C(F)(F)F)c2)cc(-c2ccccc2)n1CCCN1CCOCC1 [HC 067047],effect on AdSucc-induced Ca2+ signaling,HUVEC cells [1]; TROV4 antagonist at 0.5 μM,did not affect
Cc1cc(N2CCCCC2)nc2ccccc12 [ML 204],effect on AdSucc-induced Ca2+ signaling,HUVEC cells [1]; TRPC 4/5 antagonist at 25 μM,did not affect
Cc1nc(N=Nc2ccc(S(=O)(=O)O)cc2S(=O)(=O)O)c(COP(=O)(O)O)c(C=O)c1O [PPADS],effect on AdSucc-induced Ca2+ response,"HUVEC cells [1]; non-selective P2 purinergic antagonist, HUVEC cells, n=5",significantly attenuated
"O=C(O)C[C@H](Nc1ncnc2c1ncn2[C@@H]1O[C@H](CO)[C@@H](O)[C@H]1O)C(=O)O [SuccAd, N-(9-β-D-ribofuranosyl-9H-purin-6-yl)-L-aspartic acid]","concentration of the AdSucc degradation product in the matrigel, relative to AdSucc",[10]; lower than AdSucc,1000 fold
same,invasion and sprouting of HUVEC cells,HUVEC cells [9],did not have an effect
COc1ccc2c(c1)CC[C@@H]1[C@@H]2CC[C@]2(C)[C@@H](NCCCCCCN3C(=O)C=CC3=O)CC[C@@H]12 [U73122],effect on Ca2+ response upon AdSucc treatment,"HUVEC cells [1]; HUVEC cells, n=5",significantly attenuated
Nc1ncnc2c1ncn2[C@@H]1O[C@H](CO)[C@@H](O)[C@H]1O [adenosine],degradation product level in the matrigel,[10],undetectable

# Reference: patent US20210277005A1, “PROANGIOGENIC COMPOSITIONS AND METHODS OF USE” (University of North Dakota, priority 2020, published 2021)
